In paper PMC4032265 (PLoS ONE, 2014):
“And” between values parts separate entries of the source, which are not always exact repeats. Identical values can stand only once. Like-named read-outs stand apart in the source and are kept apart here.

What was measured:
α2B adrenergic receptor = molecular target: T1, α2B adrenergic receptor (Homo sapiens, UniProt P18089); assay: PDSP radioligand binding, α2B; conditions: for Ki: full concentration-response curves, n = 3-6 unless noted; for inhibition at 10 µM: read-out: % inhibition at 10 µM
T1 sequence (P18089 1-450): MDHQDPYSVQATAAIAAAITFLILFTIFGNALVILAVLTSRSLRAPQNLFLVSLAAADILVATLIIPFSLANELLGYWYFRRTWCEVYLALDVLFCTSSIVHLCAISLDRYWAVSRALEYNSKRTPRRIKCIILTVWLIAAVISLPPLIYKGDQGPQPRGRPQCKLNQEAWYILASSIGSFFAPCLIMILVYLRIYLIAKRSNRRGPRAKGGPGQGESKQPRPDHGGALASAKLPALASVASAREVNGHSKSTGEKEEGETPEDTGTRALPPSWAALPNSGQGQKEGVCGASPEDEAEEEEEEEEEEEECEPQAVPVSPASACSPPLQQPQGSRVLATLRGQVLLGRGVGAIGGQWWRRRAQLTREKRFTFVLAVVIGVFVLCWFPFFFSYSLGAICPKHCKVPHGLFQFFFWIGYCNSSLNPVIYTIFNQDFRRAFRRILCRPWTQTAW

[1] = molecular target: H1 histaminergic receptor (Homo sapiens, UniProt P35367); assay: PDSP radioligand binding, H1; conditions: read-out: % inhibition at 10 µM
Chain of H1 histaminergic receptor (P35367 whole entry): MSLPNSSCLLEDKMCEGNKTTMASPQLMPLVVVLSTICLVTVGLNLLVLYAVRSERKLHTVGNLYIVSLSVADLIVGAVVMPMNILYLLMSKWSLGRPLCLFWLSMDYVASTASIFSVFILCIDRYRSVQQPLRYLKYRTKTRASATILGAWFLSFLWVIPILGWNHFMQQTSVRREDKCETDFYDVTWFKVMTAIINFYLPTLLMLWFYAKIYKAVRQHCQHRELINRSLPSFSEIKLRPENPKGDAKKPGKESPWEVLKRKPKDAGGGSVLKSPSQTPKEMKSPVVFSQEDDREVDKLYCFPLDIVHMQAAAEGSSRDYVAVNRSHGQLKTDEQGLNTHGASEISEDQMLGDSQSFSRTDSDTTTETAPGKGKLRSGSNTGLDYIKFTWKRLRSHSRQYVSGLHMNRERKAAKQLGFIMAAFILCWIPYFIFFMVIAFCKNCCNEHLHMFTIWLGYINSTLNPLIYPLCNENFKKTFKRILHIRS

δ opioid receptor = δ opioid receptor (Homo sapiens, UniProt P41143); assay: PDSP radioligand binding, δ opioid; conditions: for Ki: full concentration-response curves, n = 3-6 unless noted; for inhibition at 10 µM: read-out: % inhibition at 10 µM
Chain of δ opioid receptor (P41143 whole entry): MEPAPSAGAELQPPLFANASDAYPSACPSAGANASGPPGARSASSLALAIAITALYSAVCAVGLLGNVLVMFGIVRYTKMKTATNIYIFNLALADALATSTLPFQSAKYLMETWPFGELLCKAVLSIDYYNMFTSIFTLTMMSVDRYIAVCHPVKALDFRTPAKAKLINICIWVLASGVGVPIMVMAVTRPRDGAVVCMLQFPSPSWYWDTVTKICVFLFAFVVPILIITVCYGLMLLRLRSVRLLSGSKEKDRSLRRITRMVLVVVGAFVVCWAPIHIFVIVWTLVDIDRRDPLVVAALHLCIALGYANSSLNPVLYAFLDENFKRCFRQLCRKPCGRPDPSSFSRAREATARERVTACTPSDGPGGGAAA

[2] = molecular target: T2, 5HT2C serotonergic receptor (Homo sapiens, UniProt P28335); assay: PDSP radioligand binding, 5HT2C; conditions: for Ki: full concentration-response curves, n = 3-6 unless noted; for inhibition at 10 µM: read-out: % inhibition at 10 µM
T2 sequence (P28335 33-458): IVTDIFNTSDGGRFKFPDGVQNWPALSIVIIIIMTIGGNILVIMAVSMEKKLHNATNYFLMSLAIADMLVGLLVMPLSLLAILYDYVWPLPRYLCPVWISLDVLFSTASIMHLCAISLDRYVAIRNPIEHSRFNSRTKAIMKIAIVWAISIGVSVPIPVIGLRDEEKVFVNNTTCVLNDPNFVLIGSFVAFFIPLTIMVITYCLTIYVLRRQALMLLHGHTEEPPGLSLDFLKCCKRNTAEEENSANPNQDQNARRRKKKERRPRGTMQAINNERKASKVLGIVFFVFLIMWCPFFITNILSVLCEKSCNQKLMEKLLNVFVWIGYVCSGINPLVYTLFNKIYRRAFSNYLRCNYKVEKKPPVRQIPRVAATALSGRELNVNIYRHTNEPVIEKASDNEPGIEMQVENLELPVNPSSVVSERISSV

[3] = molecular target: H4 histaminergic receptor (Homo sapiens, UniProt Q9H3N8); assay: PDSP radioligand binding, H4; conditions: read-out: % inhibition at 10 µM
Chain of H4 histaminergic receptor (Q9H3N8 whole entry): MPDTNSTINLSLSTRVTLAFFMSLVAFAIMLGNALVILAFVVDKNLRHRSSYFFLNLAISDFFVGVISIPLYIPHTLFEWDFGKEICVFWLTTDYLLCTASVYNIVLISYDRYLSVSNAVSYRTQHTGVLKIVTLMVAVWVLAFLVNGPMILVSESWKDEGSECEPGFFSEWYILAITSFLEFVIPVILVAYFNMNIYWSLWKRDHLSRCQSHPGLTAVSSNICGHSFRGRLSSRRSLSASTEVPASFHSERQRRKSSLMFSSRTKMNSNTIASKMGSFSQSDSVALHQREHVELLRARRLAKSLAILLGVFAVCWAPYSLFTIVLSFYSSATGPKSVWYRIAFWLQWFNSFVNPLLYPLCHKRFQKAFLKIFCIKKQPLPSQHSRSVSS

[4] = molecular target: T3, 5HT1A serotonergic receptor (Homo sapiens, UniProt P08908); assay: PDSP radioligand binding, 5HT1A; conditions: for inhibition at 10 µM: read-out: % inhibition at 10 µM
T3 sequence (P08908 1-422): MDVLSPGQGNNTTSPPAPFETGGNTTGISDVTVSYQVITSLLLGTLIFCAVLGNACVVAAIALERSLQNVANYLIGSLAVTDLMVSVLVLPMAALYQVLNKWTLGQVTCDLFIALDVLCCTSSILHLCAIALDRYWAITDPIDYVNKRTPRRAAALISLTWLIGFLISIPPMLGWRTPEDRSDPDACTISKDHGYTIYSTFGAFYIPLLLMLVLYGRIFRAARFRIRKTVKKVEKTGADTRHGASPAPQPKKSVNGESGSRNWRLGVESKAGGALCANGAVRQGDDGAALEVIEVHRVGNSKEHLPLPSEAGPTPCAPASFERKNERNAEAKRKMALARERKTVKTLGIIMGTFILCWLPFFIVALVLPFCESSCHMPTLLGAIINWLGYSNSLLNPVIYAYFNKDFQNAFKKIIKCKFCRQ

α1A adrenergic receptor = molecular target: T4, α1A adrenergic receptor (Homo sapiens, UniProt P35348); assay: PDSP radioligand binding, α1A; conditions: read-out: % inhibition at 10 µM
T4 sequence (P35348 1-466): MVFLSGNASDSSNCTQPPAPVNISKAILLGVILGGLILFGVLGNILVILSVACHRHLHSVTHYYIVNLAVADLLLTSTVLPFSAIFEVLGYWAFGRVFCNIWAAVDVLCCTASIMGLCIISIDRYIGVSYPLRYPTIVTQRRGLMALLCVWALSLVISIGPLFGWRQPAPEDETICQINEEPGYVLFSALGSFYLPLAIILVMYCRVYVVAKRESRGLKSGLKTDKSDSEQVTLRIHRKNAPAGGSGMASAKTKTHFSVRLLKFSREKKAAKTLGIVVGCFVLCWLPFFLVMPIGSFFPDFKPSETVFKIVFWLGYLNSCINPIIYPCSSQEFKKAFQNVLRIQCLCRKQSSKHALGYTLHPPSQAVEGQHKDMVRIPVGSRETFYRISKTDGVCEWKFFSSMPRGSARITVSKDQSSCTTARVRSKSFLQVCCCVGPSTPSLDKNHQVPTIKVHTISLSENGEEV

α1D adrenergic receptor = molecular target: T5, α1D adrenergic receptor (Homo sapiens, UniProt P25100); assay: PDSP radioligand binding, α1D; conditions: read-out: % inhibition at 10 µM
T5 sequence (P25100 1-572): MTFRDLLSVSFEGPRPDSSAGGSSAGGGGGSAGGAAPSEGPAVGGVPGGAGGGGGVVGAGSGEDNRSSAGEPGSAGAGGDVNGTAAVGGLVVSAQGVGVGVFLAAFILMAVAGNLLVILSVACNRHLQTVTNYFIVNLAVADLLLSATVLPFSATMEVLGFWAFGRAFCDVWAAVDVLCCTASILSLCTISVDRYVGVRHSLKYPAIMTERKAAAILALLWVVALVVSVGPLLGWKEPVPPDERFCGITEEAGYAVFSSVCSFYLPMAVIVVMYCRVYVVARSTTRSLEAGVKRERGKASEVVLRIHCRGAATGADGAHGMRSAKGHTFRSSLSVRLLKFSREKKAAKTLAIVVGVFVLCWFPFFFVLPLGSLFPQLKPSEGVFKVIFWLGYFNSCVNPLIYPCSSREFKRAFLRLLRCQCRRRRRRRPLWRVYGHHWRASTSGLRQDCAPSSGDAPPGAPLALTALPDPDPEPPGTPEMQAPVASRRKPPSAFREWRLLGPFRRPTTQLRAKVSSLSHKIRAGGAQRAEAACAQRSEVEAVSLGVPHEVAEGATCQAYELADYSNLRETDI

[5] = molecular target: M3 muscarinic acetylcholine receptor (Homo sapiens, UniProt P20309); assay: PDSP radioligand binding, M3; conditions: read-out: % inhibition at 10 µM
Chain of M3 muscarinic acetylcholine receptor (P20309 whole entry): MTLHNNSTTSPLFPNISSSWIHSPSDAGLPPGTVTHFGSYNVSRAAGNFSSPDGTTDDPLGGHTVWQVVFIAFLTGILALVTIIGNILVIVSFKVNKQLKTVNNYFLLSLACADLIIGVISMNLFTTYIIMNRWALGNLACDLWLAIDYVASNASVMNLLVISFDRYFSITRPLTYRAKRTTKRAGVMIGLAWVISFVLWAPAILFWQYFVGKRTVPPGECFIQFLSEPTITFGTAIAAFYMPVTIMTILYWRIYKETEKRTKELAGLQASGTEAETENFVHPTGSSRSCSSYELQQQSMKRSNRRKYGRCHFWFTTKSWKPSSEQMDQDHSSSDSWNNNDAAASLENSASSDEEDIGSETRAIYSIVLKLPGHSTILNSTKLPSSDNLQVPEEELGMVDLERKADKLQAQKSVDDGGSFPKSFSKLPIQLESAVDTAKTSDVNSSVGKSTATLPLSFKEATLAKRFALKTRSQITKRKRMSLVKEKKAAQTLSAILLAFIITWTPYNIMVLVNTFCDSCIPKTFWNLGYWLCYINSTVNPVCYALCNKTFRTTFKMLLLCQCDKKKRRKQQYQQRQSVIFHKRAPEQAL

D1 dopaminergic receptor = D1 dopaminergic receptor (Homo sapiens, UniProt P21728); assay: PDSP radioligand binding, D1; conditions: read-out: % inhibition at 10 µM
Chain of D1 dopaminergic receptor (P21728 whole entry): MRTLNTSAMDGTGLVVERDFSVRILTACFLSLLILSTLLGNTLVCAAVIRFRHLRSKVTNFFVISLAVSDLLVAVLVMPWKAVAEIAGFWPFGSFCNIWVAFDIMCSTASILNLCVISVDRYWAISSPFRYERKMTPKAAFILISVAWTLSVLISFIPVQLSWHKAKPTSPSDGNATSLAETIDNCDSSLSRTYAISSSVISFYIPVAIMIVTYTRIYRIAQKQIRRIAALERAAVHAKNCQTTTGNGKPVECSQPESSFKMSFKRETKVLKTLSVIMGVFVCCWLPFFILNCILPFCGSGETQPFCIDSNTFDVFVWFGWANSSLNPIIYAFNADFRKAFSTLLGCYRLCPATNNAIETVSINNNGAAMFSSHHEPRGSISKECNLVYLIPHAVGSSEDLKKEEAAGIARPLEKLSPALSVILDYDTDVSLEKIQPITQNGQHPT

[6] = molecular target: 5HT7 serotonergic receptor (Homo sapiens, UniProt P34969); assay: PDSP radioligand binding, 5HT7; conditions: for inhibition at 10 µM: read-out: % inhibition at 10 µM; for Ki: full curve, n = 1
Chain of 5HT7 serotonergic receptor (P34969 whole entry): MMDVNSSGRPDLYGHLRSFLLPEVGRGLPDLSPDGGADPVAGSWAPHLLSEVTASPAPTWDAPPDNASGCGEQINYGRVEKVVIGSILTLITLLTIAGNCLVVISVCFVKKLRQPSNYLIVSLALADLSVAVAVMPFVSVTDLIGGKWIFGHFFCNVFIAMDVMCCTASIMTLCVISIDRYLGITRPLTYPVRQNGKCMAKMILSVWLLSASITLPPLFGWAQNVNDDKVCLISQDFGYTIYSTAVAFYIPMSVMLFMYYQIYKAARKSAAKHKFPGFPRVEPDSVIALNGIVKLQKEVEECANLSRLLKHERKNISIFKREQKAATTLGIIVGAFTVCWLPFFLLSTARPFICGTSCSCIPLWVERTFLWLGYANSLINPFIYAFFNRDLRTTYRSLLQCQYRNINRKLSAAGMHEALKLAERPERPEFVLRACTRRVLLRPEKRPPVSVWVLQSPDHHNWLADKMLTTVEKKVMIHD

Compound	Ki (α2B adrenergic receptor)	Ki [2]	inhibition at 10 µM [2]	inhibition at 10 µM (α2B adrenergic receptor; single concentration 10 µM)	inhibition at 10 µM ([1]; single concentration 10 µM)	inhibition at 10 µM (δ opioid receptor; single concentration 10 µM)	inhibition at 10 µM ([2]; single concentration 10 µM)	inhibition at 10 µM ([3]; single concentration 10 µM)	inhibition at 10 µM ([4]; single concentration 10 µM)	inhibition at 10 µM (α1A adrenergic receptor; single concentration 10 µM)	inhibition at 10 µM (α1D adrenergic receptor; single concentration 10 µM)	inhibition at 10 µM ([5]; single concentration 10 µM)	inhibition at 10 µM (D1 dopaminergic receptor; single concentration 10 µM)	inhibition at 10 µM ([6]; single concentration 10 µM)	further results
CNC(=O)[C@@]12C[C@@H]1[C@@H](n1cnc3c(NCc4cccc(Cl)c4)nc(C#Cc4ccc(F)c(F)c4)nc31)[C@H](O)[C@@H]2O [Compound 1]	2.86 ± 1.11 µM	7.19 ± 1.41 µM	20%	–	–	–	–	–	–	–	–	–	–	–	inhibition at 10 µM (α2B adrenergic receptor): 49%; inhibition at 10 µM [1]: 0%; Ki (δ opioid receptor): 2.44 ± 1.54 µM; inhibition at 10 µM (δ opioid receptor): 44%; inhibition at 10 µM [3]: 17%; Ki [4]: 7.62 µM; inhibition at 10 µM [4]: 26%; inhibition at 10 µM (α1A adrenergic receptor): 10%; inhibition at 10 µM (α1D adrenergic receptor): 3%; inhibition at 10 µM [5]: 2%; inhibition at 10 µM (D1 dopaminergic receptor): 13%; inhibition at 10 µM [6]: 5%
CNC(=O)[C@@]12C[C@@H]1[C@@H](n1cnc3c(NCc4cccc(Cl)c4)nc(C#Cc4ccccc4Cl)nc31)[C@H](O)[C@@H]2O [Compound 3]	6.48 ± 2.94 µM	–	–	8%	21%	31%	25%	9%	6%	16%	20%	5%	27%	8%	–
O[C@@H]1[C@H](O)[C@@H]2C[C@@H]2[C@H]1n1cnc2c(NCc3cccc(Cl)c3)nc(C#Cc3ccc(F)c(F)c3)nc21 [Compound 6]	5.97 ± 1.53 µM	–	–	0%	3%	11%	0%	–	9%	13%	5%	0%	3%	0%	–
CNC(=O)[C@@]12C[C@@H]1[C@@H](n1cnc3c(NCc4cccc(Cl)c4)nc(Cl)nc31)[C@H](O)[C@@H]2O [Compound 4]	–	0.12 µM and 0.122 µM	–	21%	6%	10%	95%	–	29%	3%	0%	1%	11%	40 ± 7%	Ki [6]: 7.73 µM
O[C@@H]1[C@H](O)[C@@H]2C[C@@H]2[C@H]1n1cnc2c(NC(C3CC3)C3CC3)nc(Cl)nc21 [Compound 10]	–	1.85 ± 0.46 µM	49%	15%	0%	0%	–	6%	4%	1%	13%	0%	0%	0%	–
Clc1cccc(CNc2nc(Cl)nc3[nH]cnc23)c1 [Compound 9]	0.061 ± 0.02 µM	3.32 ± 0.32 µM	–	95%	4%	7%	56%	5%	12%	26%	0%	0%	0%	12%	–
CNC(=O)[C@@]12C[C@@H]1[C@@H](n1cnc3c(NCc4cccc(Cl)c4)nc(C#Cc4ccc(F)cc4)nc31)[C@H](O)[C@@H]2O [Compound 2]	–	–	–	12%	0%	24%	16%	28%	5%	7%	6%	6%	19%	6%	Ki (δ opioid receptor): 6.62 ± 1.7 µM
Fc1ccc(C#Cc2nc(NCc3cccc(Cl)c3)c3nc[nH]c3n2)cc1F [Compound 8]	1.09 ± 0.14 µM	–	–	63%	1%	12%	11%	5%	11%	0%	0%	10%	0%	0%	–
CNC(=O)[C@@]12C[C@@H]1[C@@H](n1cnc3c(NC)nc(C#Cc4ccc(F)c(F)c4)nc31)[C@H](O)[C@@H]2O [Compound 5]	–	–	1%	0%	0%	9%	–	–	10%	0%	0%	5%	0%	0%	–
O[C@@H]1[C@H](O)[C@@H]2C[C@@H]2[C@H]1n1cnc2c(NCc3cccc(Cl)c3)ncnc21 [Compound 7]	6.34 ± 1.47 µM	1.74 µM	–	42%	64%	7%	51%	0%	28%	15%	30%	11%	2%	35 ± 2%	Ki [6]: 3.92 µM
